Experimental findings from patent US20240238787A1, “PLATE ASSAY DEVICE AND METHOD FOR IN SITU IMAGING” (Duke University, priority 2023, published 2024) are described below.

Assay [1] deals with P. aeruginosa PA14 biofilm streamers. The assay can be described thus: in situ confocal laser scanning microscopy of biofilm and biofilm streamers on ziggurat peg after antibiotic challenge. The assay is classed as cell-based, Pseudomonas aeruginosa PA14. As to conditions: 10 μg/mL. An excerpt: The intent of this peg 110 is to optimize for in situ confocal imaging. Two imaging techniques were applied to evaluate this. With respect to FIG. 8B, the surface 128i of the distal-most portion 128i of the peg 110 was captured using a tile and z-stack approach. The biomass formed on the edges of the peg 110 and, in the “no antibiotic” samples, could be thick enough to scatter the fluorescent light emission. FIG. 8B illustrates selected 3D tiles of the surface of the surface 128i of the peg 110 with an area of 8.042 mm2. This is known to leave imaging artifacts resembling “holes” in the images observed in FIG. 8B (e.g., “No antibiotic”). Streamers, are often formed in this area. […] With respect to FIGS. 8A and 8C, the surface biomass on the second end 116 analyzed using COMSTAT 2.1 was plotted using EstimationStats. With respect to FIGS. 8D and 8F, the biomass on the second step 128h of the step analyzed using COMSTAT 2.1 was plotted using EstimationStats. […]
Pegs 110, 150, 160, 170, 180, 190 were imaged in PBS with an inverted Zeiss LSM 900 (Zeiss, Germany) using a 488 nm laser for excitation and detection wavelengths of […] (green) for GFP and 590-700 nm (red) for identifying autofluorescence. […] Biomass quantification of antibiotic plate images was performed using Comstat2 v2.1 as an ImageJ plugin. […]

In assay [2] the test system is P. aeruginosa PA14 biofilm. Kind of assay: antibiotic challenge of biofilm on ziggurat peg lid (modified ASTM E2799-22), OD 600 reading and CFU count after sonication. The class given is cell-based, Pseudomonas aeruginosa PA14. As to conditions: peg 110, vs no antibiotic; for reduction in CFU on a per area basis: 24 h challenge; for OD600 mean reduction: biofilm recovered in PBS by sonication. As to the method:
The applicability lid having pegs 110 with a ziggurat shape was evaluated to the relevant ATSM standard, E2799-22, modified workflow FIG. 6. Specifically, the pegs 110 were inoculated in a 24-well plate with media at step 300 and incubated at step 304. At step 308, the pegs 110 were then challenged with antibiotics and then incubated again at step 312. At step 316, the pegs were washed or rinsed and, at step 320, placed in PBS for imaging. The pegs 110 were sonicated, at step 324, to remove attached biofilm, which was quantified using OD 600 reading, at step 328, and a CFU count, at step 332. Importantly, the lid 100 could be handled in the same fashion as the commercially available peg lid. The pegs 110 were less rigidly attached to the lid 100 than the commercially available peg lid and could be broken off easily for a biofilm growth check, although due to the ring of biofilm at the air-medium interface typical of wild-type PA14, this could also be verified visually. Due to the design, it was also possible to image in situ. With respect to FIGS. 7A-7D, after imaging, OD 600 and CFU counts were performed to verify no loss of function between the lid 100 optimized for imaging and the commercially available peg lid. Specifically, the raw data and mean difference versus no antibiotics are shown for 100 μg/mL tetracycline, 10 μg/mL tetracycline on an OD 600 basis on the MBEC® Assay (FIG. 7A), the modified plate (FIG. 7B), and on a CFU/mm2 for PA14 (FIG. 7C). […] PA14 was grown on pegs in TSB for 24 hours before recovery. Wells were categorized as “inside” (e.g., those on the dash-dot line) or “outside” (e.g., those on the dashed line) according to the layout in FIG. 9B. The mean differences was plotted using bootstrap sampling distributions and 95% confidence interval is indicated by the ends of the vertical error bars using EstimationStats.
Experiments were conducted using Pseudomonas aeruginosa PA14, which constitutively expressed GFP. Cultures were grown over-night in tryptic soy broth (VWR International, USA) at 37° C. and 150 rpm. 10 μL of the overnight culture was used to inoculate 50 mL of fresh TSB. The growth plate (24 well, VWR International, USA) was prepared by dispensing […] of broth per well, adding the peg lid 100, and incubating for 24 h at 37° C. and 100 rpm. […]
Transfers between media and rinse plates were accomplished by lifting the peg lid 100, allowing excess liquid to drip off, and gently placing the lid 100 in the new plate. […] The efficacy of removal from the surface by sonication as not tested, however the resultant OD600 readings for P. aeruginosabetween this and the MBEC® assay were similar […]

Each structure is given as a SMILES string.

As to `CN(C)[C@@H]1C(O)=C(C(N)=O)C(=O)[C@@]2(O)C(O)=C3C(=O)c4c(O)cccc4[C@@](C)(O)[C@H]3C[C@@H]12` [tetracycline], in assay [1] (no antibiotic streamer 309.09±10.43 μm), the “streamer midpoint diameter as % of the no antibiotic streamer” value is on record as 12.96%. Moreover, in assay [1] (streamer between surface 128i and step 128h, FIG. 8E), the “approximate midpoint diameter of biofilm streamer” value was roughly 40.05±11.98 μm. In addition, in assay [2] (10 μg/mL tetracycline), the “reduction in CFU on a per area basis” value was determined as 0 fold and the OD600 mean reduction was determined as 0.02. Besides, in assay [2] (100 μg/mL tetracycline), the “reduction in CFU on a per area basis” value came to 3 fold and the OD600 mean reduction amounted to 0.03.
